Where “and” joins values, the source holds several entries; their conditions need not be identical. Identical values can stand only once.
Legend:
[1] = biological target: T1, CDK1 (Homo sapiens, UniProt P06493); assay: CDK-1 kinase screening assay (33P-ATP FlashPlate); type: biochemical; conditions: human CDK1 with cyclin B; 10 μM ATP; 1 hr at 30° C
T1 construct: purchased New England Biolabs, Beverly, Mass; 6020; host or cells: insect cells

[2] = tested on: HCT-116 colon carcinoma; assay: Cell Proliferation Inhibition Assay (14C-thymidine incorporation), HCT-116; type: cell-based;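 note: proliferation measured as methyl 14C-thymidine uptake into new DNA, counted in 96-well scintillating microplates, compared with DMSO-only control wells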
[3] = biological target: T2, Lyn kinase (Homo sapiens, UniProt P07948); assay: Lyn Kinase Assay; type: biochemical; conditions: 5 μM ATP
T2 construct: purchased Upstate Biotechnology, Lake Placid, N.Y
T2 sequence (P07948 whole entry): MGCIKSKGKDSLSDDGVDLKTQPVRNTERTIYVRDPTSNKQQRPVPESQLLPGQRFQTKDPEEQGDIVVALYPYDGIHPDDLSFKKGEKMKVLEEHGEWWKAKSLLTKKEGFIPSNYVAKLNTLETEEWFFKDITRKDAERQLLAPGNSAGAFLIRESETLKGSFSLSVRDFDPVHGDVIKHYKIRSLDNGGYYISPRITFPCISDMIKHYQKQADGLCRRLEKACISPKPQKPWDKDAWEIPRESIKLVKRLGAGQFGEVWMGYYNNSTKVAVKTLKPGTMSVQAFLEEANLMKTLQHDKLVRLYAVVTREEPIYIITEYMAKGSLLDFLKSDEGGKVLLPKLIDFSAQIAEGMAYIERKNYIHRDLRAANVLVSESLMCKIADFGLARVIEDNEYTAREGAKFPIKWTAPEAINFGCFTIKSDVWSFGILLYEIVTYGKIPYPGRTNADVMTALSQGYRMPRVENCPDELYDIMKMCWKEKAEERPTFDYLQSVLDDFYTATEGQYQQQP
Method: Test compound in 100% DMSO (0.5 μL) was added to the appropriate wells. Diluted Lyn kinase (human) (Accession Number EMBL M16038) (Upstate Biotechnology, Lake Placid, N.Y.) (diluted in a buffer consisting of 50 mM Tris at pH 7.5, 0.1 mM EGTA, Sodium Vanadate (0.1 mM), β-mercaptoethanol (0.1%) and 1 mg/mL bovine serum albumin) (2.5 μL) was added to the wells to initiate the reactions.
The reaction plates were incubated at 30° C. for 40 min. The reaction was terminated by the addition of a 3% phosphoric acid solution (5 μL). The reaction product (10 μL) was spotted onto a P30 filtermat and washed for 5 minutes in phosphoric acid (75 mM). The wash sequence was repeated two more times, followed with one final wash in methanol. The plates were then dried, sealed and read on the TopCount scintillation counter after adding 30 μL scintillation fluid.
(§1) A maximum and minimum signal for the assay was determined on each plate. The percent inhibition of a test compound was calculated according to the formula: […]
For a series of test concentrations, the IC50 was derived by graphing percent inhibition against the log of the concentrations tested for a given compound with results shown in Table 3
(§2) For compounds with multiple values, each value represents a separate assay result.

[4] = biological target: T3, c-Src kinase (Homo sapiens, UniProt P12931); assay: c-Src Kinase Assay; type: biochemical; conditions: 5 μM ATP
T3 construct: purchased Upstate Biotechnology, Lake Placid, N.Y
T3 sequence (P12931 whole entry): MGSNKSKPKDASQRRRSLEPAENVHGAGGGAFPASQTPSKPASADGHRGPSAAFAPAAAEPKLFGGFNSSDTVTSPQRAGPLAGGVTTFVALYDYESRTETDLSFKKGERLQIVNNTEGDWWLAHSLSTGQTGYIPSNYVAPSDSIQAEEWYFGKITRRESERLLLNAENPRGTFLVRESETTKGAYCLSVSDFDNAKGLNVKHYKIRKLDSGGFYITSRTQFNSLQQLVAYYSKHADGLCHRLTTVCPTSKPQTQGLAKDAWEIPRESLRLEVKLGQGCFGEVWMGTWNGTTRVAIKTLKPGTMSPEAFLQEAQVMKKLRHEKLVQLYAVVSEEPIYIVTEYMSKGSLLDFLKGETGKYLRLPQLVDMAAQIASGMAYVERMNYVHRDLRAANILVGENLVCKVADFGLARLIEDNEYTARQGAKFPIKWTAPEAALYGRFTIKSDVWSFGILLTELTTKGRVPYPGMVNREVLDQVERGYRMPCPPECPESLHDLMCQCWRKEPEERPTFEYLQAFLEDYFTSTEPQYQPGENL
Method: A mixture of a 10× kinase buffer (80 mM MOPS at pH 7.0, 2 mM EDTA and 100 mM Magnesium Chloride), ATP (5 μM final from a 10 mM stock), a Cdc2 peptide […] (100 μM final from a 2.5 mM stock), γ-^33P ATP (10 μCi/μL stock) and water (for a total of 20 μL/well) was added to each well of a Streptavidin Flashplate.
Test compound in 100% DMSO (0.5 μL) was added to the appropriate wells. Diluted c-Src kinase (human) (Accession Number SWISS-PROT P12931) (Upstate Biotechnology, Lake Placid, N.Y.) (diluted in a buffer consisting of 20 mM MOPS at pH 7.0, 1 mM EDTA, β-mercaptoethanol (0.1%), Brij-35 (0.01%), glycerol (5%), and 1 mg/mL bovine serum albumin) (2.5 μL) was added to the wells to initiate the reactions. The reaction plates were incubated at 30° C. for 40 min. The reaction was terminated by the addition of a 3% phosphoric acid solution (5 μL). The reaction product (10 μL) was spotted onto a P30 filtermat and washed for 5 minutes in phosphoric acid (75 mM). The wash sequence was repeated two more times, followed with one final wash in methanol. The plates were then dried, sealed and read on the TopCount scintillation counter after adding 30 μL scintillation fluid.
as §1
For a series of test concentrations, the IC50 was derived by graphing percent inhibition against the log of the concentrations tested for a given compound with results shown in Table 2
as §2

[5] = tested on: HeLa cervical adenocarcinoma; assay: Cell Proliferation Inhibition Assay (14C-thymidine incorporation), HeLa; type: cell-based; conditions: Homo sapiens, HeLa cells;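 note: test compound in DMSO added to cells seeded in scintillating 96-well plates, DMSO-only wells as control, uptake of methyl 14C-thymidine into new DNA counted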
[6] = tested on: A375 malignant melanoma; assay: Cell Proliferation Inhibition Assay (14C-thymidine incorporation), A375; type: cell-based; conditions: Homo sapiens, A-375, A375 cells;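 note: proliferation measured by radiolabelled thymidine uptake into new DNA, counted in scintillating 96-well plates, compound-treated wells compared with DMSO-only control wells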
[7] = biological target: T4, HER2 (Homo sapiens, UniProt P04626); assay: HER2 kinase screening assay (33P-ATP FlashPlate); type: biochemical; conditions: GST-HIS6 HER-2 aa 679 to 1255; 10 μM ATP; 1 hr at 30° C;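 note: Biotin-poly(GT) 4:1 peptide captured on streptavidin FlashPlate, 33P transfer from γ-ATP read by scintillation counting, lower incorporation means inhibition, 1% DMSO final, 100 µL reaction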
T4 construct: GST (Glutathione-S-Transferase) (N); HIS6 (N); thrombin cleavage site (N); purchased Proqinase, Freiburg, Germany
T4 sequence (P04626 679-1255): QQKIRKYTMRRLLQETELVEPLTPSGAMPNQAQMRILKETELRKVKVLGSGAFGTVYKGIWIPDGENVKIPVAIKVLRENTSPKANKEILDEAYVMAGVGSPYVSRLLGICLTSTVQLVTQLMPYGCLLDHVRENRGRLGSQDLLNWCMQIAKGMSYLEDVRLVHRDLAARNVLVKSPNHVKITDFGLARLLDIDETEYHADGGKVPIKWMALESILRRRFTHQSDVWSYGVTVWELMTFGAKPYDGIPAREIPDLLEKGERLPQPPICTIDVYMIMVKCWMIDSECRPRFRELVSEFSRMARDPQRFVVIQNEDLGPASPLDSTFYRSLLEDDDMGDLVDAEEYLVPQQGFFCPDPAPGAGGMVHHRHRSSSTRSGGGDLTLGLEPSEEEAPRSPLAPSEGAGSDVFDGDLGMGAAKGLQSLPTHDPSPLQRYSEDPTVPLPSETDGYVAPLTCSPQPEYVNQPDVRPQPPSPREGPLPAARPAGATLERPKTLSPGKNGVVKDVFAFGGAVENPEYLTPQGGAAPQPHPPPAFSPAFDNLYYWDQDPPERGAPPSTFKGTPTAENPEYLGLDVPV

[8] = biological target: T5, RET (Homo sapiens, UniProt P07949); assay: RET kinase screening assay (33P-ATP FlashPlate); type: biochemical; conditions: human RET kinase domain; 10 μM ATP; 1 hr at 30° C;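 note: biotinylated peptide substrate captured on streptavidin FlashPlate, 33P phosphate transfer read by scintillation counting, 1% DMSO, lower incorporation means inhibition, percent relative to per-plate maximum and minimum signals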
T5 construct: polyhistidine (N)
T5 sequence (P07949 658-1114 limits assumed): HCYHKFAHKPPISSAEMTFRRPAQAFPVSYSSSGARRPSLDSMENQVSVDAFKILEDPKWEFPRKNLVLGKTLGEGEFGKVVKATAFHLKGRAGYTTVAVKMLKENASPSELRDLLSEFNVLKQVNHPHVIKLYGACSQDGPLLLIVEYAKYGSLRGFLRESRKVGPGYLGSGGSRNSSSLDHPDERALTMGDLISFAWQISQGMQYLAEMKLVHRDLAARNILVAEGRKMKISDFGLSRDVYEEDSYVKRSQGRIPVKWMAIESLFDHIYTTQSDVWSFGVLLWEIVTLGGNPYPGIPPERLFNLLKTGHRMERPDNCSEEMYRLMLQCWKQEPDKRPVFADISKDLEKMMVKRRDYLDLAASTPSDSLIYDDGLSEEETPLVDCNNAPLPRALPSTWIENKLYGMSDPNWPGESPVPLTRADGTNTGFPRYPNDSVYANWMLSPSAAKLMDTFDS

[9] = biological target: T6, VEGF-R2 (Rattus norvegicus, UniProt O08775); assay: VEGF-R2 kinase screening assay (33P-ATP FlashPlate); type: biochemical; conditions: rat VEGF-R2 kinase domain; 10 μM ATP; 1 hr at 30° C;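 note: Read-out is ³³P incorporation from ³³P-γ-ATP into biotinylated peptide substrate captured on streptavidin FlashPlate, counted by scintillation, 1% DMSO final, inhibition scaled between per-plate maximum and minimum signals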
T6 construct: polyhistidine (N)
T6 sequence (O08775 786-1343): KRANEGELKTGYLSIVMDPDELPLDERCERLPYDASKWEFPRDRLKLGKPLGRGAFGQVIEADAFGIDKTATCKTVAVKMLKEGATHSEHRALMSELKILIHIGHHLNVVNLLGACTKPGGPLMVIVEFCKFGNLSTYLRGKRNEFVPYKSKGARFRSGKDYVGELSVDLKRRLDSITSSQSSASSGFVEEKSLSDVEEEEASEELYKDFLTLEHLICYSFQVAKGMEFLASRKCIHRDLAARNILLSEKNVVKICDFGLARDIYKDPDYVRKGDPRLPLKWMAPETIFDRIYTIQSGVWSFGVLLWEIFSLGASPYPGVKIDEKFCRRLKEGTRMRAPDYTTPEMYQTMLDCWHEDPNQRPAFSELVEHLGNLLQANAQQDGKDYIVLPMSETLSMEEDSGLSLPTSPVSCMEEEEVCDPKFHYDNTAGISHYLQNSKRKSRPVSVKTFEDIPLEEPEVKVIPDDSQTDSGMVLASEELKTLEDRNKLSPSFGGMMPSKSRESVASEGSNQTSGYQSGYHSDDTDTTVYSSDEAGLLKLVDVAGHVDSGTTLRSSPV

[10] = biological target: T7, Aurora-A (Mus musculus, UniProt P97477); assay: Aurora-A kinase screening assay (33P-ATP FlashPlate); type: biochemical; conditions: 10 μM ATP, 1 hr at 30° C;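 note: His-tagged mouse Aurora-A phosphorylating a biotinylated peptide captured on streptavidin plates, read as 33P uptake by scintillation counting, 1% DMSO, inhibition scaled between per-plate maximum and minimum signals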
T7 construct: polyhistidine (N)
T7 sequence (P97477 1-395): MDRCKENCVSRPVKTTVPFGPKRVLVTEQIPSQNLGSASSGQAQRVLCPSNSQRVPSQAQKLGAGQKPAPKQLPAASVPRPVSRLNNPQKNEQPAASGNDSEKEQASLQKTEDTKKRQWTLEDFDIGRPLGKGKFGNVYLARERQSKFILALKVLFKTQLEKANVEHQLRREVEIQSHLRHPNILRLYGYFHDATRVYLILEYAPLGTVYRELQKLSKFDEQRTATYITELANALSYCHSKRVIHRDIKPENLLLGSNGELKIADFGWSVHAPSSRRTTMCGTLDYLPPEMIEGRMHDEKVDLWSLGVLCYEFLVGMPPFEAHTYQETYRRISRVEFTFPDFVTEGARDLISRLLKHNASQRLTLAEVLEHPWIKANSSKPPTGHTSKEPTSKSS

[11] = Homo sapiens, HCT-116, HCT-116 cells

T1 sequence (P06493 whole entry): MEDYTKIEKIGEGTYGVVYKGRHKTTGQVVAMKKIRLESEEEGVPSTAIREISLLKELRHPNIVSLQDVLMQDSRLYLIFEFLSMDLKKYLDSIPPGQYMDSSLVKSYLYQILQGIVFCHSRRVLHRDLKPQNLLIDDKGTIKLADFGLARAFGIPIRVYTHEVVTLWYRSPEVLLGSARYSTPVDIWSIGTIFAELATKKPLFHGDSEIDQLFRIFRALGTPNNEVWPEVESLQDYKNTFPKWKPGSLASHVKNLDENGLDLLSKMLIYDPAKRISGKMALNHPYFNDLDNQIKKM
T1 sequence (P14635 whole entry partner): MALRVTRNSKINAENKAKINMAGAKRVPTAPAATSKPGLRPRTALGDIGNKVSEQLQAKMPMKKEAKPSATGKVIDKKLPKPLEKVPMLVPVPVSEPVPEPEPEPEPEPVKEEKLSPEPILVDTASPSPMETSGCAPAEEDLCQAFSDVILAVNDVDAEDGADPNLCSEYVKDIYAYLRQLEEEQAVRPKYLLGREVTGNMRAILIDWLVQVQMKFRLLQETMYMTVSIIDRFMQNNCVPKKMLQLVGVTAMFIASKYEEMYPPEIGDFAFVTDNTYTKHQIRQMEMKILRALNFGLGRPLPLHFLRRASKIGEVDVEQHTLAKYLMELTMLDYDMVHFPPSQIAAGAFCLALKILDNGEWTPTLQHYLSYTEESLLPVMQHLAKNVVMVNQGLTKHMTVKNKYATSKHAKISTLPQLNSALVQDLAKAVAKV

SMILES	IC50 [1]	IC50 ([2]; Homo sapiens, HCT-116 cells) [nM]	IC50 [3] [nM]	IC50 [4] [nM]	IC50 [5] [nM]	IC50 [6] [nM]	IC50 [7] [nM]	IC50 [8] [nM]	IC50 [9]	IC50 [10]	IC50 [2, 11] [nM]	IC50 ([5]; HeLa) [nM]	IC50 ([2]; HCT-116 cells) [nM]
CN1CCN(c2ccc3[nH]c(-c4n[nH]c5ncc(-c6cncc7ccccc67)cc45)nc3c2)CC1 [Cpd 31, 4-{3-[5-(4-methyl-piperazin-1-yl)-1H-benzoimidazol-2-yl]-1H-pyrazolo[3,4-b]pyridin-5-yl}-isoquinoline]	13.6 nM	355	3.87	4.21	455	165	6510						
COCc1cccc2[nH]c(-c3nn(C)c4ncc(-c5cncc6ccccc56)cc34)nc12 [Cpd 33, 4-[3-(4-methoxymethyl-1H-benzoimidazol-2-yl)-1-methyl-1H-pyrazolo[3,4-b]pyridin-5-yl]-isoquinoline]	123 nM		1140	1170		256	> 100000	> 100000	> 100000 nM	~100000 nM	203	1180	
COCc1cccc2[nH]c(-c3n[nH]c4ncc(-c5cncc(CNC(C)C)c5)cc34)nc12 [Cpd 43, isopropyl-{5-[3-(4-methoxymethyl-1H-benzoimidazol-2-yl)-1H-pyrazolo[3,4-b]pyridin-5-yl]-pyridin-3-ylmethyl}-amine]	29.1 nM		132	836		166	> 10000	2230	683 nM	6580 nM	131	180	
COCc1cccc2[nH]c(-c3n[nH]c4ncc(-c5cncc(CO)c5)cc34)nc12 [Cpd 44, {5-[3-(4-methoxymethyl-1H-benzoimidazol-2-yl)-1H-pyrazolo[3,4-b]pyridin-5-yl]-pyridin-3-yl}-methanol]	88.9 nM		379	288		357	> 100000	~10000	341 nM	> 1000 nM	128	771	
O=C(NC1CC1)c1cccc2[nH]c(-c3n[nH]c4ncc(-c5cncc6ccccc56)cc34)nc12 [Cpd 47, 2-(5-isoquinolin-4-yl-1H-pyrazolo[3,4-b]pyridin-3-yl)-1H-benzoimidazole-4-carboxylic acid cyclopropylamide]	1.59 nM		2.28	0.635		12.9	~10000		149 nM	57.2 nM	31.3	12.2	
c1ccc2c(-c3cnc4[nH]nc(-c5nc6cc(N7CCOCC7)ccc6[nH]5)c4c3)cncc2c1 [Cpd 51, 4-[3-(5-morpholin-4-yl-1H-benzoimidazol-2-yl)-1H-pyrazolo[3,4-b]pyridin-5-yl]-isoquinoline]	8.55 nM		5	2.82		297	> 100000		1080 nM	41.5 nM	376	401	
COCc1cccc2[nH]c(-c3n[nH]c4ncc(-c5cncc(CN6CCOCC6)c5)cc34)nc12 [Cpd 54, 3-(4-methoxymethyl-1H-benzoimidazol-2-yl)-5-(5-morpholin-4-ylmethyl-pyridin-3-yl)-1H-pyrazolo[3,4-b]pyridine]	177 nM and 343 nM		578	143			> 100000		1880 nM and 1570 nM	3260 nM and 4640 nM	33.6		63.5
COCc1cccc2[nH]c(-c3n[nH]c4ncc(-c5cncc(CN(C)C)c5)cc34)nc12 [Cpd 55, {5-[3-(4-methoxymethyl-1H-benzoimidazol-2-yl)-1H-pyrazolo[3,4-b]pyridin-5-yl]-pyridin-3-ylmethyl}-dimethyl-amine]	124 nM		578	143		330	> 100000		1600 nM	3750 nM	186	1230	
CNCc1cncc(-c2cnc3[nH]nc(-c4nc5cc(N6CCN(C)CC6)ccc5[nH]4)c3c2)c1 [Cpd 81, methyl-(5-{3-[5-(4-methyl-piperazin-1-yl)-1H-benzoimidazol-2-yl]-1H-pyrazolo[3,4-b]pyridin-5-yl}-pyridin-3-ylmethyl)-amine]	3.04 nM	600	170	225	444	768	715		35.9 nM	173 nM			
CC(C)NCc1cncc(-c2cnc3[nH]nc(-c4nc5cc(N6CCN(C)CC6)ccc5[nH]4)c3c2)c1 [Cpd 83, isopropyl-(5-{3-[5-(4-methyl-piperazin-1-yl)-1H-benzoimidazol-2-yl]-1H-pyrazolo[3,4-b]pyridin-5-yl}-pyridin-3-ylmethyl)-amine]	7.67 nM		2.43	6.63		1060	1490		73.4 nM	263 nM	1500	1450	
COc1ccc2nc(-c3n[nH]c4ncc(-c5cccnc5)cc34)[nH]c2c1 [Cpd 90, 3-(6-methoxy-1H-benzoimidazol-2-yl)-5-pyridin-3-yl-1H-pyrazolo[3,4-b]pyridine]	2.74 nM		69.4	56.7		371			316 nM	279 nM	299	418	
CNCc1cncc(-c2cnc3[nH]nc(-c4nc5ccc(OC)cc5[nH]4)c3c2)c1 [Cpd 97, {5-[3-(6-methoxy-1H-benzoimidazol-2-yl)-1H-pyrazolo[3,4-b]pyridin-5-yl]-pyridin-3-ylmethyl}-methyl-amine]	0.9 nM	61.5	4.29	16.4	61.4	164	1450						

From patent US7541367B2, “3-benzoimidazolyl-pyrazolopyridines useful in treating kinase disorders” (Janssen Pharmaceutica, N.V., priority 2005, dated 2009)
